≈ marks a conversion by molar mass, not a printed value. Where a SMILES comes first, the peptide text is derived from it.
Assays:
C. acnes = details: cited from earlier work
Procedure: Five AMPs were examined earlier for treatment of individual bacteria related to skin and soft tissue infections, while none of them were tested against all ESCAPE pathogens simultaneously. Peptide R1 is a direct derivate of earlier published RP551 [47], with the replacement of non-proteinogenic amino acid, ornithine (O) by lysine (K) at the positions 3,8,11, and 14.

[1] = tested on: IL-10 secretion in LPS stimulated PBMNCs; test: IL-10 secretion by PBMNCs, ELISA; format: cell-based, human; details: LPS and 20 μg/mL peptide, 24 h
Procedure: (§1) The effect of the peptides was evaluated in human peripheral blood mononuclear cells (PBMNCs). Blood from healthy donors was collected in Monovette vacutainers containing EDTA. Blood was collected in accordance with the approval of the Committee of Research Ethics of the Institute of Cardiology and Regenerative Medicine, University of Latvia. Blood was diluted (1:2 ratio by volume) with 0.9% sodium chloride solution supplemented with 10 U/mL heparin and mononuclear cell fraction isolated by gradient centrifugation. Diluted blood samples were layered on Ficoll-Paque solution in ratio 2:1 (GE Healthcare, Chicago, IL, USA), and density gradient centrifugation was performed at 800× g for 20 min at room temperature in a swing-out centrifuge. Mononuclear cells containing buffy coats were aspirated and washed twice with phosphate-buffered saline and centrifuged at 600× g for 20 min at room temperature. The cell pellet was suspended in DMEM medium (Sigma, D6046, Irvine, UK) supplemented with 1% penicillin (100 U/mL)–streptomycin (100 μg/mL) and 10% fetal bovine serum (Sigma, St. Louis, MO, USA), and cells were seeded on 24-well plates at a density of 5 × 10^5 cells per well and incubated at 37 °C, 5% CO2. […]
(§2) Concentrations of TNF-α and IL-10 secreted in cultivation media by PBMNCs were determined using enzyme-linked immunosorbent assay (ELISA). […]

[2] = tested on: BALB/c 3T3 murine fibroblast cell line; test: Cytotoxicity, neutral red uptake assay; format: cell-based; details: Balb/c 3T3, neutral red uptake, 48 h, tested 3.9–500 μg/mL
Text: The BALB/c 3T3 murine fibroblast cell line was obtained from ATCC (American Type Culture Collection, Manassas, VA, USA). Primary human dermal fibroblasts were isolated by enzymatic digestion from skin biopsies in the Laboratory of Bioanalytical and Biodosimetry Methods, University of Latvia, in accordance with the approval of the Committee of Research Ethics of the Institute of Cardiology and Regenerative Medicine, University of Latvia. Cells were propagated in DMEM medium (Sigma, Irvine, UK), supplemented with 1% penicillin (100 U/mL)–streptomycin (100 μg/mL), and 10% calf serum (Sigma, St. Louis, MO, USA) for Balb/c 3T3 cell line and fetal bovine serum (Sigma, St. Louis, MO, USA) for primary dermal fibroblasts. All cultivations were performed in a humidified 5% CO2 atmosphere at 37 °C.
The cytotoxicity of the peptides was tested in the BALB/c3T3 cell line and primary dermal fibroblasts by the neutral red (NR) uptake assay. Cells were seeded in 96-well plates at a density of 5 × 10^3 cells per well. After 24 h of incubation, peptides in a concentration range of 3.9 to 500 μg/mL were added. Dilutions were made in a cell cultivation medium. Cultivation in the presence of extracts was performed for 48 h. Afterwards, plates were washed with phosphate-buffered saline (PBS) (Sigma, Irvine, UK), and a 25 µg/mL NR solution (Sigma, Irvine, UK) diluted in 5%-fetal-calf-serum-containing-media was added. After 3 h, incubation in a humidified 5% CO2 atmosphere at 37 °C, the plate was washed with PBS, and the NR taken up by viable cells was extracted using desorbing fixative (50% ethanol/1% acetic acid/49% water). Absorbance at 540 nm was measured using a microplate reader Tecan Infinite® 200 PRO (Tecan Group Ltd., Mannedorf, Switzerland). Cytotoxicity was expressed as a concentration-dependent reduction in the uptake of NR, compared to the untreated controls and calculated using the following equation: Cell viability (%)=Abs540nm(treatment)−Abs540nm(background)/Abs540nm(untreated control)−Abs540nm(background)×100%

P. aeruginosa = test: microbe, parasite or virus in culture; format: cell-based, Pseudomonas aeruginosa; details: 96-well plate, serial dilutions, 32 °C, 13–18 h, 200 rpm, OD 550 nm
Procedure: Quantification of the antimicrobial resistance against various AMPs was carried out by measuring the bacterial growth in the presence of peptides at serial dilutes in 96 well plates in a microplate (96-well plate) reader Infinite® M200 PRO Multimode Microplate Reader (Tecan, Maennedorf, Switzerland) according to our recent reports. All bacterial strains were incubated at 32 °C for 13–18 h at 200 rpm. Optical density measurements (λ = 550 nm) were taken automatically at 10 min intervals. Antimicrobial resistance activity was quantified as the minimum inhibitory concentration (MIC)—the lowest concentration of a peptide which prevents growth of bacterial cells.

[3] = tested on: human peripheral blood mononuclear cells (PBMNCs); test: Viability of PBMNCs, MTT reduction assay; format: cell-based; details: 24 h, 4 and 20 μg/mL with or without 5 µg/mL LPS, n = 3
Procedure: as §1, with “temperature.” for “temperature. The cell pellet was suspended in DMEM medium (Sigma, D6046, Irvine, UK) supplemented with 1% penicillin (100 U/mL)–streptomycin (100 μg/mL) and 10% fetal bovine serum (Sigma, St. Louis, MO, USA), and cells were seeded on 24-well plates at a density of 5 × 10^5 cells per well and incubated at 37 °C, 5% CO2.”
Viability of PBMNCs after incubation with peptides was evaluated using MTT reduction assay. […] Absorption was measured at 570 nm using Tecan Infinite® 200 PRO (Tecan Group Ltd., Mannedorf, Switzerland).
Blank wells without cells were used for the background measurement. Proliferation relative to control was calculated using the equation below. […]

[4] = tested on: TNF-α secretion in LPS stimulated PBMNCs; test: TNF-α secretion by PBMNCs, ELISA; format: cell-based, human; details: 24 h
Procedure: as §1, §2

HaCaT keratinocytes = details: cited from earlier work

Row | SMILES | antimicrobial activity against C. acnes (C. acnes) | increase of IL-10 secretion compared to LPS alone [1] | concentrations at which cytotoxic / reduced cell viability [2] | MIC P. aeruginosa (P. aeruginosa) | reduction of PBMNC viability [3] | increase of TNF-α secretion [4] | concentrations without cytotoxic effect (HaCaT keratinocytes)
1 | CC[C@H](C)[C@H](NC(=O)CNC(=O)[C@H](CCCCN)NC(=O)[C@H](Cc1ccc(O)cc1)NC(=O)[C@H](CS)NC(=O)[C@@H](NC(=O)[C@H](CCCCN)NC(=O)[C@H](Cc1ccccc1)NC(=O)[C@H](CS)NC(=O)[C@H](Cc1c[nH]c2ccccc12)NC(=O)[C@@H](N)CCCNC(=N)N)C(C)C)C(=O)N[C@@H](CS)C(=O)N[C@@H](Cc1ccc(O)cc1)C(=O)N[C@@H](CCCCN)C(=O)N[C@@H](CCCCN)C(=O)N[C@@H](CS)C(=O)N[C@@H](CCCCN)C(=O)O [RP556] (H-RWCFKVCYKGICYKKCK-OH; N-terminus and C-terminus assumed) | 2 to 4 µg/mL | 35.56% | only at the highest concentration | 2 µg/mL (≈ 0.927 µM) | ≤ 17.5% | below 18.3% | 
2 | CC(C)[C@H](N)C(=O)N[C@@H](CCCCN)C(=O)N[C@@H](CCCNC(=N)N)C(=O)N[C@@H](Cc1c[nH]c2ccccc12)C(=O)N[C@@H](CCCCN)C(=O)N[C@@H](CCCCN)C(=O)N[C@@H](Cc1c[nH]c2ccccc12)C(=O)N[C@@H](Cc1c[nH]c2ccccc12)C(=O)N[C@@H](CCCNC(=N)N)C(=O)N[C@@H](CCCCN)C(=O)N[C@@H](Cc1c[nH]c2ccccc12)C(=O)N[C@@H](CCCCN)C(=O)N[C@@H](CCCCN)C(=O)N[C@@H](Cc1c[nH]c2ccccc12)C(=O)N[C@H](C(=O)O)C(C)C [LZ1, reference compound] (H-VKRWKKWWRKWKKWV-OH) |  |  | 62.5 µg/mL |  |  |  | up to 200 μg/mL

From paper PMC10044245, “Comparative Evaluation of Existing and Rationally Designed Novel Antimicrobial Peptides for Treatment of Skin and Soft Tissue Infections” (Antibiotics, 2023)
